The source of these data is patent publication US10004701B2, “Methods and compositions for treating infection” (UNIVERSITY OF ROCHESTER, priority 2012, dated 2018).

Structures can show the parent of a compound that is named as a salt. Where two headings read alike, the source gives them in different places.

Common to all, as to assay: AK assay 384-well format, Prestwick library screening
For one test, the system named is E. faecium. The test is classed as cell-based, Enterococcus faecium. The following applies: 50 μM final drug concentration; for fold induction at 50 µM: Enterococcus faecium, 3 h.
Test [1] concerns S. aureus strain USA300-0114. The test is classed as cell-based, Staphylococcus aureus. The note with it: 50 μM final drug concentration; for fold induction at 50 µM: Staphylococcus aureus, USA300, 3 h.
A further test concerns K. pneumoniae. The format is cell-based, Klebsiella pneumoniae. The note with it: 50 μM final drug concentration; for fold induction at 50 µM: Klebsiella pneumoniae, 3 h.
Test [2] has as its system A. baumannii strain 98-37-09. The format is cell-based, Acinetobacter baumannii. The following applies: 50 μM final drug concentration; for fold induction at 50 µM: Acinetobacter baumannii, 983709, 3 h.
Another test deals with P. aeruginosa. The test is classed as cell-based, Pseudomonas aeruginosa. The note with it: 50 μM final drug concentration; for fold induction at 50 µM: Pseudomonas aeruginosa, 3 h.
In the next test the test system is E. cloacae. The format is cell-based, Enterobacter cloacae. The following applies: 50 μM final drug concentration; for fold induction at 50 µM: Enterobacter cloacae, 3 h.
The subject of a further test is E. coli. The format is cell-based, Escherichia coli. The following applies: 50 μM final drug concentration; for fold induction at 50 µM: Escherichia coli, 3 h.
Setting [3] is: cutoff for positive-scoring molecules 3-fold increase, read-out: AK-based Prestwick Library Screening Results, E. faecium (fold increase in extracellular AK activity).
The mark [4] stands for this setting: cutoff for positive-scoring molecules 3-fold increase, read-out: AK-based Prestwick Library Screening Results, S. aureus (fold increase in extracellular AK activity).
Setting [5] is: cutoff for positive-scoring molecules 3-fold increase, read-out: AK-based Prestwick Library Screening Results, K. pneumoniae (fold increase in extracellular AK activity).
The mark [6] stands for this setting: cutoff for positive-scoring molecules 3-fold increase, read-out: AK-based Prestwick Library Screening Results, A. baumannii (fold increase in extracellular AK activity).
[7] abbreviates: cutoff for positive-scoring molecules 3-fold increase, read-out: AK-based Prestwick Library Screening Results, P. aeruginosa (fold increase in extracellular AK activity).
The mark [8] stands for this setting: cutoff for positive-scoring molecules 3-fold increase, read-out: AK-based Prestwick Library Screening Results, E. cloacae (fold increase in extracellular AK activity).
The mark [9] stands for this setting: cutoff for positive-scoring molecules 3-fold increase, read-out: AK-based Prestwick Library Screening Results, E. coli (fold increase in extracellular AK activity).
[10] abbreviates: planktonic, cutoff for positive 3-fold increase, read-out: AK-based Prestwick Library Screening Results, E. faecium (fold increase in extracellular AK activity).
Setting [11] is: planktonic, cutoff for positive 3-fold increase, read-out: AK-based Prestwick Library Screening Results, S. aureus (fold increase in extracellular AK activity).
Where [12] appears, read: planktonic, cutoff for positive 3-fold increase, read-out: AK-based Prestwick Library Screening Results, K. pneumoniae (fold increase in extracellular AK activity).
Setting [13] is: planktonic, cutoff for positive 3-fold increase, read-out: AK-based Prestwick Library Screening Results, A. baumannii (fold increase in extracellular AK activity).
[14] abbreviates: planktonic, cutoff for positive 3-fold increase, read-out: AK-based Prestwick Library Screening Results, P. aeruginosa (fold increase in extracellular AK activity).
The mark [15] stands for this setting: planktonic, cutoff for positive 3-fold increase, read-out: AK-based Prestwick Library Screening Results, E. cloacae (fold increase in extracellular AK activity).
[16] abbreviates: planktonic, cutoff for positive 3-fold increase, read-out: AK-based Prestwick Library Screening Results, E. coli (fold increase in extracellular AK activity).

With `CN1CCN(C(c2ccccc2)c2ccc(Cl)cc2)CC1` (centres unmarked) [Chlorcyclizine hydrochloride], the fold induction at 50 µM with E. faecium (setting [3]) worked out at 1; in test [1] (setting [4]), 1.2; in the test on K. pneumoniae (setting [5]) it was 1.1; in test [2] (setting [6]), 1.5; in the test with P. aeruginosa (setting [7]) it was 1.1; in the test on E. cloacae (setting [8]) it was 1.6. The fold induction at 50 µM in the test with E. coli (setting [9]) was 1.3.

With `CCN(CC)CCOC(=O)C(Cc1cccc2ccccc12)CC1CCCO1` (centres unmarked) [Nafronyl oxalate], the fold induction at 50 µM was 1 with E. faecium (setting [10]); 0.9 in test [1] (setting [11]); 1 in the test with K. pneumoniae (setting [12]); 1 in test [2] (setting [13]); 1.1 in the test with P. aeruginosa (setting [14]); 1.4 in the test with E. cloacae (setting [15]). The fold induction at 50 µM in the test on E. coli (setting [16]) was 1.

Regarding `Cn1cnc2c1c(=O)[nH]c(=O)n2C` [Theobromine], the fold induction at 50 µM amounted to 1.1 with E. faecium (setting [3]); 1.3 in test [1] (setting [4]); 1.2 in the test with K. pneumoniae (setting [5]); 1.1 in test [2] (setting [6]); 1.2 in the test on P. aeruginosa (setting [7]); 1.4 with E. cloacae (setting [8]). Moreover, the fold induction at 50 µM with E. coli (setting [9]) was 1.2.

Take `CCOC(=O)C1=C(C)NC(C)=C(C(=O)OC)C1c1cccc(Cl)c1Cl` (centres unmarked) [Felodipine]: the fold induction at 50 µM in the test on E. faecium (setting [10]) worked out at 1.3; in test [1] (setting [11]) it was 2.5; with K. pneumoniae (setting [12]) it was 1; in test [2] (setting [13]), 3; in the test with P. aeruginosa (setting [14]) it was 1; in the test with E. cloacae (setting [15]), 1.7. In the test with E. coli (setting [16]), the fold induction at 50 µM stood at 1.2.

For the compound `CN1CCC2(C)c3cc(O)ccc3N(C)C12.O=C(O)/C=C/C(=O)O` (single isomer, unassigned; (-)) [(−)-Eseroline fumarate salt], in the test with E. faecium (planktonic E. faecium, […]), the “AK-based Prestwick library screening result, E. faecium (fold increase in extracellular AK activity)” value was 1.1. Also, the “AK-based Prestwick library screening result, S. aureus (fold increase in extracellular AK activity)” value in test [1] (planktonic S. aureus, […]) came to 0.9. Further, the “AK-based Prestwick library screening result, K. pneumoniae (fold increase in extracellular AK activity)” value in the test with K. pneumoniae (planktonic K. pneumoniae, […]) was 0.9. For the same compound, the “AK-based Prestwick library screening result, A. baumannii (fold increase in extracellular AK activity)” value in test [2] (planktonic A. baumannii, […]) was 0.9. In the test with P. aeruginosa (planktonic P. aeruginosa, […]), the “AK-based Prestwick library screening result, P. aeruginosa (fold increase in extracellular AK activity)” value is 0.8. For the same compound, the “AK-based Prestwick library screening result, E. cloacae (fold increase in extracellular AK activity)” value in the test with E. cloacae (planktonic E. cloacae, […]) was determined as 1.4. Further, the “AK-based Prestwick library screening result, E. coli (fold increase in extracellular AK activity)” value in the test with E. coli (planktonic E. coli, […]) worked out at 1.0.

Consider `NS(=O)(=O)c1cc2c(cc1Cl)N=C(CSCc1ccccc1)NS2(=O)=O` [Benzthiazide], for which the fold induction at 50 µM in the test with E. faecium (planktonic, cutoff for positive-scoring molecules 3-fold increase, read-out: AK-based Prestwick Library Screening Results, E. faecium (fold increase in extracellular AK activity)) was determined as 1.4; in test [1] (planktonic, cutoff for positive-scoring molecules 3-fold increase, read-out: AK-based Prestwick Library Screening Results, S. aureus (fold increase in extracellular AK activity)), 0.8; in the test with K. pneumoniae (planktonic, cutoff for positive-scoring molecules 3-fold increase, read-out: AK-based Prestwick Library Screening Results, K. pneumoniae (fold increase in extracellular AK activity)), 0.8; in test [2] (planktonic, cutoff for positive-scoring molecules 3-fold increase, read-out: AK-based Prestwick Library Screening Results, A. baumannii (fold increase in extracellular AK activity)), 0.9; with P. aeruginosa (planktonic, cutoff for positive-scoring molecules 3-fold increase, read-out: AK-based Prestwick Library Screening Results, P. aeruginosa (fold increase in extracellular AK activity)), 0.9; with E. cloacae (planktonic, cutoff for positive-scoring molecules 3-fold increase, read-out: AK-based Prestwick Library Screening Results, E. cloacae (fold increase in extracellular AK activity)), 1.1. Also, the fold induction at 50 µM with E. coli (planktonic, cutoff for positive-scoring molecules 3-fold increase, read-out: AK-based Prestwick Library Screening Results, E. coli (fold increase in extracellular AK activity)) came out at 0.9.

As to `CCCC1O[C@@H]2C[C@H]3[C@@H]4CCC5=CC(=O)C=C[C@]5(C)[C@H]4[C@@H](O)C[C@]3(C)[C@]2(C(=O)CO)O1` (some centres unmarked) [Budesonide], the fold induction at 50 µM in the test with E. faecium (planktonic E. faecium, cutoff for positive-scoring molecules 3-fold increase, read-out: AK-based Prestwick Library Screening Results, E. faecium (increase in extracellular AK activity)) came to 0.9; in test [1] (planktonic S. aureus, cutoff for positive-scoring molecules 3-fold increase, read-out: AK-based Prestwick Library Screening Results, S. aureus (increase in extracellular AK activity)) it was 0.6; in the test with K. pneumoniae (planktonic K. pneumoniae, cutoff for positive-scoring molecules 3-fold increase, read-out: AK-based Prestwick Library Screening Results, K. pneumoniae (increase in extracellular AK activity)), 0.7; in test [2] (planktonic A. baumannii, cutoff for positive-scoring molecules 3-fold increase, read-out: AK-based Prestwick Library Screening Results, A. baumannii (increase in extracellular AK activity)), 0.9; with P. aeruginosa (planktonic P. aeruginosa, cutoff for positive-scoring molecules 3-fold increase, read-out: AK-based Prestwick Library Screening Results, P. aeruginosa (increase in extracellular AK activity)), 0.9; with E. cloacae (planktonic E. cloacae, cutoff for positive-scoring molecules 3-fold increase, read-out: AK-based Prestwick Library Screening Results, E. cloacae (increase in extracellular AK activity)) it was 1.4. In addition, the fold induction at 50 µM in the test on E. coli (planktonic E. coli, cutoff for positive-scoring molecules 3-fold increase, read-out: AK-based Prestwick Library Screening Results, E. coli (increase in extracellular AK activity)) was determined as 0.9.

Take `C#C[C@]1(O)CC[C@H]2[C@@H]3CCC4=CC(=O)CC[C@@H]4[C@H]3CC[C@@]21C` [Norethindrone]: the fold induction at 50 µM is 1 with E. faecium (384-well format, cutoff for positive-scoring molecules 3-fold increase, read-out: AK-based Prestwick Library Screening Results, E. faecium (increase in extracellular AK activity)); 0.8 in test [1] (384-well format, cutoff for positive-scoring molecules 3-fold increase, read-out: AK-based Prestwick Library Screening Results, S. aureus (increase in extracellular AK activity)); 0.7 in the test with K. pneumoniae (384-well format, cutoff for positive-scoring molecules 3-fold increase, read-out: AK-based Prestwick Library Screening Results, K. pneumoniae (increase in extracellular AK activity)); 0.7 in test [2] (384-well format, cutoff for positive-scoring molecules 3-fold increase, read-out: AK-based Prestwick Library Screening Results, A. baumannii (increase in extracellular AK activity)); 0.8 in the test on P. aeruginosa (384-well format, cutoff for positive-scoring molecules 3-fold increase, read-out: AK-based Prestwick Library Screening Results, P. aeruginosa (increase in extracellular AK activity)); 0.9 in the test with E. cloacae (384-well format, cutoff for positive-scoring molecules 3-fold increase, read-out: AK-based Prestwick Library Screening Results, E. cloacae (increase in extracellular AK activity)). In addition, the fold induction at 50 µM with E. coli (384-well format, cutoff for positive-scoring molecules 3-fold increase, read-out: AK-based Prestwick Library Screening Results, E. coli (increase in extracellular AK activity)) was determined as 0.7.
